Laboratory results reported in ChEMBL document CHEMBL1201862, “PubChem BioAssay data set” (2004).
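How tested: cells in 96-well plates exposed to compound for 48 hours at five concentrations. At the GI50, growth is halved.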 Active and inactive are the calls of the source. Rule as the data show it: active = GI50 up to about 1.1 µM and inactive = higher.

Key:
Assay in all cases: NCI-60 cell line screen, 48 h
HCT-116 = test system: HCT-116
MDA-MB-231 = test system: MDA-MB-231
A498 = test system: A498
IGROV-1 = test system: IGROV-1
COLO 205 = test system: COLO 205
A549 = test system: A549
SN12C = test system: SN12C
SNB-19 = test system: SNB-19
U-251 = test system: U-251
PC-3 = test system: PC-3
SK-MEL-5 = test system: SK-MEL-5
LOX IMVI = test system: LOX IMVI
HOP-92 = test system: HOP-92
MCF7 = test system: MCF7
SF-268 = test system: SF-268
HOP-62 = test system: HOP-62
SF-539 = test system: SF-539
NCI-H226 = test system: NCI-H226
MOLT-4 = test system: MOLT-4
RPMI-8226 = test system: RPMI-8226

SMILES | GI50 (HCT-116) | GI50 (MDA-MB-231) | GI50 (A498) | GI50 (IGROV-1) | GI50 (COLO 205) | GI50 (A549) | GI50 (SN12C) | GI50 (SNB-19) | GI50 (U-251) | GI50 (PC-3) | GI50 (SK-MEL-5) | GI50 (LOX IMVI) | GI50 (HOP-92) | GI50 (MCF7) | GI50 (SF-268) | GI50 (HOP-62) | GI50 (SF-539) | GI50 (NCI-H226) | GI50 (MOLT-4) | GI50 (RPMI-8226)
O=C1OC(C(O)C(O)C(O)CO)C(O)C1O (stereo not given) | > 100 µM (inactive) | > 100 µM (inactive) | > 100 µM (inactive) | > 100 µM (inactive) | > 100 µM (inactive) | > 100 µM (inactive) | > 100 µM (inactive) | > 100 µM (inactive) | > 100 µM (inactive) | > 100 µM (inactive) | > 100 µM (inactive) | > 100 µM (inactive) | > 100 µM (inactive) | > 100 µM (inactive) | > 100 µM (inactive) | > 100 µM (inactive) | > 100 µM (inactive) | > 100 µM (inactive) | > 100 µM (inactive) | > 100 µM (inactive)
C/C(=N\N=C(/S)N1CC2CCC(CC2)C1)c1cccc[n+]1[O-] | 3.61 µM (inactive) | 19.5 µM (inactive) | 18.3 µM (inactive) | 17.9 µM (inactive) | 3.66 µM (inactive) | 4.98 µM (inactive) | 7.67 µM (inactive) | 9.08 µM (inactive) | 6.28 µM (inactive) | 11.7 µM (inactive) | 6.21 µM (inactive) | 5.02 µM (inactive) | 13.2 µM (inactive) | 5.7 µM (inactive) | 11.8 µM (inactive) | 12.6 µM (inactive) | 5.85 µM (inactive) | 3.41 µM (inactive) | 0.373 µM (active) | 0.381 µM (active)
CCOC1SC(SC)=NN1C(=O)C(OC(C)=O)C(OC(C)=O)C(OC(C)=O)C(OC(C)=O)C(=O)N1N=C(SC)SC1OCC (stereo not given) | 88.5 µM (inactive) | > 100 µM (inactive) | > 100 µM (inactive) | > 100 µM (inactive) | > 100 µM (inactive) | > 100 µM (inactive) | > 100 µM (inactive) | > 100 µM (inactive) | 86.3 µM (inactive) | > 100 µM (inactive) | > 100 µM (inactive) | > 100 µM (inactive) | 38.2 µM (inactive) | > 100 µM (inactive) | > 100 µM (inactive) | > 100 µM (inactive) | 69.7 µM (inactive) | > 100 µM (inactive) | > 100 µM (inactive) | > 100 µM (inactive)
COC(=O)C1SC[C@H]2C(=O)N(c3ccccc3)C(=O)N12 (stereo not given in full) | > 100 µM (inactive) | > 100 µM (inactive) | 21.4 µM (inactive) | > 100 µM (inactive) | > 100 µM (inactive) | > 100 µM (inactive) | > 100 µM (inactive) | > 100 µM (inactive) | > 100 µM (inactive) | > 100 µM (inactive) | > 100 µM (inactive) | > 100 µM (inactive) | 85.3 µM (inactive) | > 100 µM (inactive) | > 100 µM (inactive) | > 100 µM (inactive) | > 100 µM (inactive) | > 100 µM (inactive) | > 100 µM (inactive) | > 100 µM (inactive)
O=C1CC(C(O)C(O)C(O)CO)CC(=O)N1 (stereo not given) | > 100 µM (inactive) | > 100 µM (inactive) | > 100 µM (inactive) | > 100 µM (inactive) | > 100 µM (inactive) | > 100 µM (inactive) | > 100 µM (inactive) | > 100 µM (inactive) | > 100 µM (inactive) | > 100 µM (inactive) | > 100 µM (inactive) | > 100 µM (inactive) | > 100 µM (inactive) | > 100 µM (inactive) | > 100 µM (inactive) | > 100 µM (inactive) | > 100 µM (inactive) | > 100 µM (inactive) | > 100 µM (inactive) | > 100 µM (inactive)
O=C(Cc1ccc(OCc2cccc(Cl)c2)cc1)NO | 24.5 µM (inactive) | 41.8 µM (inactive) | 2.7 µM (inactive) | 17.5 µM (inactive) | 25 µM (inactive) | 27.5 µM (inactive) | 27.6 µM (inactive) | 37.2 µM (inactive) | 28.9 µM (inactive) | 9.18 µM (inactive) | 33.3 µM (inactive) | 11.7 µM (inactive) | 41 µM (inactive) | 37.8 µM (inactive) | 20 µM (inactive) | 24.6 µM (inactive) | 29.6 µM (inactive) | 19.4 µM (inactive) | 2.98 µM (inactive) | 3.77 µM (inactive)
O=C1c2ccccc2C(=O)c2c1ccc1nc3c(nc21)-c1c2ccccc2cc2cccc-3c12 | 5.56 µM (inactive) | 74.1 µM (inactive) | > 50.9 µM (inactive) | 9.16 µM (inactive) | 90.8 µM (inactive) | 45.6 µM (inactive) | 35.8 µM (inactive) | 38.4 µM (inactive) | 31.3 µM (inactive) | 41.9 µM (inactive) | 46.7 µM (inactive) | 19.9 µM (inactive) | > 73.8 µM (inactive) | 17.6 µM (inactive) | 29.4 µM (inactive) | 26.5 µM (inactive) | 21.4 µM (inactive) | > 68.9 µM (inactive) | 18.6 µM (inactive) | 39.5 µM (inactive)
CCC/C(Cl)=N\OC(=O)Nc1ccc(Br)cc1 | 9.48 µM (inactive) | 16.9 µM (inactive) | 16.9 µM (inactive) | 12.8 µM (inactive) | 2.73 µM (inactive) | 18.4 µM (inactive) | 14 µM (inactive) | 29.5 µM (inactive) | 16.4 µM (inactive) | 14.7 µM (inactive) | 14.6 µM (inactive) | 3.89 µM (inactive) | 3.33 µM (inactive) | 6.47 µM (inactive) | 17.7 µM (inactive) | 20.9 µM (inactive) | 17.5 µM (inactive) | 21.6 µM (inactive) | 2.55 µM (inactive) | 2.96 µM (inactive)
Cc1nn(C(=O)c2ccccc2O)c2c1C(c1ccc(O)cc1O)SC(=N)N2 (stereo not given) | 3.83 µM (inactive) | 5.14 µM (inactive) | 3.61 µM (inactive) | 3.48 µM (inactive) | 9.35 µM (inactive) | 4.76 µM (inactive) | 9.71 µM (inactive) | 4.86 µM (inactive) | 5.58 µM (inactive) | 3.22 µM (inactive) | 4.12 µM (inactive) | 4.6 µM (inactive) | 3.67 µM (inactive) | 0.472 µM (active) | 4.75 µM (inactive) | 3.02 µM (inactive) | 3.77 µM (inactive) | 1.32 µM (inactive) | 3.48 µM (inactive) | 2.89 µM (inactive)
C/C(=N\NC(=S)N1CCN(c2ccccn2)CC1)c1ccccn1 | 0.00158 µM (active) | 0.0495 µM (active) | 0.853 µM (active) | 0.00151 µM (active) | 0.00419 µM (active) | 0.111 µM (active) | 0.0206 µM (active) | 0.27 µM (active) | 0.00356 µM (active) | 0.0304 µM (active) | 0.0944 µM (active) | 0.0403 µM (active) | 0.0776 µM (active) | 0.00782 µM (active) | 0.193 µM (active) | 0.035 µM (active) | 0.397 µM (active) | 0.649 µM (active) | 0.0156 µM (active) | 0.00681 µM (active)
